# Assay results reported in the supplement of paper PMC10290057.
# Where a name gives a salt, the structure may show the parent alone.
# Test system: HCT116
# Assay: efficacy (fitted maximal change in viability relative to DMSO control); higher = less cytotoxic (negative = loss of viability)
# Conditions: 48 h
# 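Further: Luminescence-based viability readout, five doses per compound, normalized against on-plate DMSO and empty-well controls, followed by dose-response curve fitting for every drug.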
row,Compound,efficacy
1,Cc1noc(C)c1-c1ccc(-c2cc(C(N)=O)c(NC(N)=O)s2)c(O[C@H]2CCNC2)c1 [AZD-3264],-40.3%
2,COc1cc2ncnc(Nc3cccc(Cl)c3F)c2cc1OC(=O)N1CCN(C)C[C@H]1C [AZD-3759],-38.2%
3,Cc1[nH]nc(C(F)(F)F)c1Cc1sc2c(c1C(=O)N1C[C@](C)(O)CO1)c(=O)n(C)c(=O)n2C(C)C [AZD-3965],-11.2%
4,CC(C)C[C@H](CO)Nc1nc(S[C@@H](C)c2ccccc2)nc2nc(N)sc12 [AZD-8797],-86.1%
5,CCn1nc(C2CCN(C(=O)CCO)CC2)nc1-c1cnc(N)c(-c2nnc(C(C)(C)C)o2)n1 [AZD-8835],-18.9%
6,C[C@@H]1Cc2c([nH]c3ccccc23)[C@@H](c2c(F)cc(/C=C/C(=O)O)cc2F)N1CC(C)(C)F [AZD-9496 maleate],-13.1%
7,C[C@]\12CC[C@H](O)CC1=C/C[C@@H]3[C@@H]2CC[C@@]\4(C)[C@H]3C\C=C4C5=CN=CC=C5 [Abiraterone],7.6%
8,CC(=O)NCCC(=O)N[C@@H](CCC(N)=O)C(=O)N[C@@H](CO)C(=O)N[C@@H](CCC(N)=O)C(=O)N[C@@H](CCC(N)=O)C(=O)N[C@H](C(=O)N[C@@H](Cc1ccccc1)C(=O)N[C@]1(C)CCCCCC/C=C\CCC[C@@](C)(C(=O)N[C@@H](CCC(N)=O)C(=O)N[C@@H](CC(N)=O)C(N)=O)NC(=O)[C@H](CC(C)C)NC(=O)[C@H](CC(C)C)NC(=O)[C@@H](CCCNC(=N)N)NC(=O)[C@H](Cc2c[nH]c3ccccc23)NC(=O)[C@H](CC(C)C)NC(=O)[C@H](CC(N)=O)NC1=O)[C@H](C)O [Ac-SAH-p53-8],-6.69%
9,NC(=O)c1ncn([C@@H]2O[C@H](CO)[C@@H](O)[C@H]2O)c1N [Acadesine],7.93%
10,CC#CC(=O)N1CCC[C@H]1c1nc(-c2ccc(C(=O)Nc3ccccn3)cc2)c2c(N)nccn12 [Acalabrutinib],-13.7%
11,C[C@H](NC1=NC=NC2=C1[NH]C=N2)\C3=N\C4=C(C=C(F)C=C4)C(=O)N3C5=CC=CC=C5 [Acalisib],-38.2%
12,CC(=O)Nc1ccc(O)cc1 [Acetaminophen],8.22%
13,N\C1=N\C2=C(N=C[N]2COCCO)C(=O)N1 [Aciclovir],-8.84%
14,Cc1cnc(C(=O)O)c[n+]1[O-] [Acipimox],-8.25%
15,O=C(O)C(=O)Nc1cccc(-c2nnn[nH]2)c1 [Acitazanolast],17%
16,COc1cc(C)c(/C=C/C(C)=C/C=C/C(C)=C/C(=O)O)c(C)c1C [Acitretin],-17.3%
17,COc1ccc(-c2ccc3cc(C(=O)O)ccc3c2)cc1C12CC3CC(CC(C3)C1)C2 [Adapalene],9.71%
18,COC(=O)N1CC2(CC2)C[C@H](C(=O)NO)[C@H]1C(=O)N1CCN(c2ccccc2)CC1 [Aderbasib],-17%
19,COc1ccc2cccc(CCNC(C)=O)c2c1 [Agomelatine],-12.5%
20,CN(C)CC(C)(C)CNc1nn2c(-c3ccccc3)nnc2cc1C1CCC1 [Akt-I-1],-8.48%
21,CN(C)CCc1c[nH]c2ccc(C[S+](=O)([O-])N3CCCC3)cc12 [Almotriptan],-6.46%
22,CCOC(=O)[C@H]1O[C@@H]1C(=O)N[C@@H](CC(C)C)C(=O)NCCC(C)C [Aloxistatin],-5.94%
23,CCCCC[C@H](O)/C=C/[C@H]1[C@H](O)CC(=O)[C@@H]1CCCCCCC(=O)O [Alprostadil],-12.3%

row,Compound,efficacy
1,O=C(Nc1cc(Oc2cc(F)c(NC(=O)C3(C(=O)Nc4ccc(F)cc4)CC3)cc2F)ccn1)C1CC1 [Altiratinib],-68.8%
2,CN(C)c1nc(N(C)C)nc(N(C)C)n1 [Altretamine],-12.2%
3,NC12CC3CC(CC(C3)C1)C2 [Amantadine hydrochloride],-15.1%
4,COC(c1ccccc1)(c1ccccc1)[C@H](Oc1nc(C)cc(C)n1)C(=O)O [Ambrisentan],-8.06%
5,N=C(N)NC(=O)c1nc(Cl)c(N)nc1N [Amiloride hydrochloride],-10.8%
6,NCCCCCC(=O)O [Aminocaproic acid],-11.3%
7,CCN1CCCC1CNC(=O)c1cc([S+](=O)([O-])CC)c(N)cc1OC (configuration not stated) [Amisulpride],-6.46%
8,CC(C)c1ccc2oc3nc(N)c(C(=O)O)cc3c(=O)c2c1 [Amlexanox],-24.9%
9,CC1(C)[C@@H](O[C@H]2O[C@H](C(=O)O)[C@@H](O)[C@H](O)[C@H]2O[C@@H]2O[C@H](C(=O)O)[C@@H](O)[C@H](O)[C@H]2O)CC[C@]2(C)[C@H]3C(=O)C=C4[C@@H]5C[C@@](C)(C(=O)O)CC[C@]5(C)CC[C@@]4(C)[C@]3(C)CC[C@@H]12 [Ammonium Glycyrrhizinate],7.39%
10,CCC(C)(C)c1ccc(CC(C)CN2C[C@@H](C)O[C@@H](C)C2)cc1 (some centres not stated) [Amorolfine hydrochloride],-10%
11,CC1(C)S[C@H]2[C@H](NC(=O)[C@@H](N)c3ccc(O)cc3)C(=O)N2[C@H]1C(=O)O [Amoxicillin sodium],6.82%
12,C[C@@H]1CC2=C(C=C3OCOC3=C2)C(=N\N1C(C)=O)/C4=CC=C(N)C=C4 [Ampanel],-12.4%
13,C[C@@H]1[C@H](O)[C@@H](C)/C=C/C=C/C=C/C=C/C=C/C=C/C=C/[C@H](O[C@@H]2O[C@H](C)[C@@H](O)[C@H](N)[C@@H]2O)C[C@@H]2O[C@](O)(C[C@@H](O)C[C@@H](O)[C@H](O)CC[C@@H](O)C[C@@H](O)CC(=O)O[C@H]1C)C[C@H](O)[C@H]2C(=O)O [Amphotericin B],-15.3%
14,N#CC(O[C@@H]1O[C@H](CO[C@@H]2O[C@H](CO)[C@@H](O)[C@H](O)[C@H]2O)[C@@H](O)[C@H](O)[C@H]1O)c1ccccc1 (some centres not stated) [Amygdalin],29%
15,COc1cc(F)c(C(C)C)cc1-c1ccc(C(F)(F)F)cc1CN1C(=O)O[C@H](c2cc(C(F)(F)F)cc(C(F)(F)F)c2)[C@@H]1C [Anacetrapib],-14.3%
16,ClC1=CC=C2N/C3=N/C(=O)CN3CC2=C1Cl [Anagrelide],-14.6%
17,CN(C)N(C)C(=O)[C@@]1(Cc2ccccc2)CCCN(C(=O)[C@@H](Cc2c[nH]c3ccccc23)NC(=O)C(C)(C)N)C1 [Anamorelin],-33.8%
18,CC(C)(C#N)c1cc(Cn2cncn2)cc(C(C)(C)C#N)c1 [Anastrozole],-11.5%
19,CC(=O)Nc1ccc(OC[C@](C)(O)C(=O)Nc2ccc([N+](=O)[O-])c(C(F)(F)F)c2)cc1 [Andarine],-7.63%
20,COc1ccc(C(=O)N2CCCC2=O)cc1 [Aniracetam],-17.4%
21,CNC(=O)c1ccc(N2C(=S)N(c3cnc(C#N)c(C(F)(F)F)c3)C(=O)C23CCC3)cc1F [Apalutamide],-24.3%
22,N#CC1(c2ccc(NC(=O)c3cccnc3NCc3ccncc3)cc2)CCCC1 [Apatinib],-32.7%
23,Cn1c(/C=C/CO)c(CO)c2c1C(=O)C=C(N1CC1)C2=O [Apaziquone],-8.27%

row,Compound,efficacy
1,OC1=CC=C(C=C1)\C2=C\C(=O)C3=C(O2)C=C(O)C=C3O [Apigenin],-82%
2,NNc1nncc2ccccc12 [Apresoline],28.9%
3,CC1CNc2c(cccc2[S+](=O)([O-])N[C@@H](CCCNC(=N)N)C(=O)N2CC[C@@H](C)C[C@@H]2C(=O)O)C1 (some centres not stated) [Argatroban],-15.9%
4,CO[C@H]1O[C@@H]2O[C@@]3(C)CC[C@H]4[C@H](C)CC[C@@H]([C@H]1C)[C@@]24OO3 [Artemether],-12.5%
5,CN1C[C@@H]2c3ccccc3Oc3ccc(Cl)cc3[C@H]2C1 [Asenapine maleate],-77.1%
6,CC(C)(O)[C@H]1CC[C@@](C)([C@H]2[C@@H](O)C[C@@]3(C)[C@@H]4C[C@H](O[C@@H]5O[C@H](CO)[C@@H](O)[C@H](O)[C@H]5O)[C@H]5C(C)(C)[C@@H](O[C@@H]6OC[C@@H](O)[C@H](O)[C@H]6O)CC[C@@]56C[C@@]46CC[C@]23C)O1 [Astragaloside A],6.04%
7,CC/1=C/2C[C@H]3C(=C)CCC[C@]3(C)/C=C2OC1=O [Atractylenolide I],6.55%
8,CN1C2CCC1CC(OC(=O)C(CO)c1ccccc1)C2 (configuration not stated) [Atropine (sulfate monohydrate)],-6.96%
9,COc1ccc([C@@H]2CC(=O)c3c(O)cc(O[C@@H]4O[C@H](CO[C@@H]5O[C@@H](C)[C@H](O)[C@@H](O)[C@H]5O)[C@@H](O)[C@H](O)[C@H]4O)cc3O2)cc1O [Aurantiamarin (Methyl Hesperidin)],-15%
10,Cc1ccc(NC(=O)[C@H]2CCCN(C(=O)c3c(C)cccc3F)[C@H]2c2ccc(NC3CCCC3)cc2)cc1C(F)(F)F [Avacopan],-27.6%
11,NC(=O)[C@@H](CCC(F)(F)F)N(Cc1ccc(-c2ncon2)cc1F)[S+](=O)([O-])c1ccc(Cl)cc1 [Avagacestat],-65.8%
12,COc1ccc(C(=O)CC(=O)c2ccc(C(C)(C)C)cc2)cc1 [Avobenzone],-43.1%
13,CN1C(=O)COc2c(C(=O)NC3CN4CCC3CC4)cc(Cl)cc21 (configuration not stated) [Azasetron hydrochloride],21.5%
14,CC[C@H]1OC(=O)[C@H](C)[C@@H](O[C@H]2C[C@@](C)(OC)[C@@H](O)[C@H](C)O2)[C@H](C)[C@@H](O[C@@H]2O[C@H](C)C[C@H](N(C)C)[C@H]2O)[C@](C)(O)C[C@@H](C)CN(C)[C@H](C)[C@@H](O)[C@]1(C)O [Azithromycin],-20.7%
15,CCOc1ccccc1N/N=C1/C(=O)N(c2nc(-c3ccccc3)cs2)N=C1C [BAM-7],-7.98%
16,O=C(O)CC(C(=O)O)N1C(=O)/C(=C2/C(=O)Nc3ccc(Br)cc32)SC1=S (configuration not stated) [BCL6 Inhibitor],-11.7%
17,CN(C)CCN(C)CCc1ccc(Cl)c(Cl)c1 [BD-1047],-29.2%
18,C[C@H]1CC2[C@@H]3CCC/4=C/C(=O)/C=C\[C@]4(C)[C@@]3(F)[C@@H](O)C[C@]2(C)[C@@]1(O)C(=O)CO (some centres not stated) [BETAMETHASONE],-11.5%
19,O=C(Nc1cccc(C(F)(F)F)c1)c1cccc2cc(Oc3cc(CO)ncn3)ccc12 [BFH-772],15.5%
20,N/C(=N\OCC(O)CN1CCCCC1)c1cccnc1 (configuration not stated) [BGP-15],-14.5%
21,OC1=CC=C2\C3=C(CNCC3)/C(=O)OC2=C1C4OCCCO4 [BI09],9.24%
